In patent US20210386720A1, “METHODS OF TREATING CNS TUMORS WITH TESETAXEL” (Odonate Therapeutics, Inc., priority 2018, published 2021):

Columns and labels:
[1] = Human plasma and CNS tissue binding by rapid equilibrium dialysis; type: in vitro ADME
[2] = In vivo tissue distribution of 14C-tesetaxel in dogs; parameters: species or system dog; conditions: for t1/2 / Cerebellum / Cerebrum / Plasma: 0.6 mg/kg; for Cerebellum / Cerebrum / Plasma: 14 days post-dose, radioactivity
Protocol: (§1) The in vivo tissue distribution of tesetaxel was previously investigated in mice treated with ^14C-tesetaxel at 4 mg/kg and sacrificed between 1-168 hours.^1 Two additional studies have been conducted in dogs and monkeys.
(§2) Dogs and monkeys were dosed at 0.6 mg/kg and 1 mg/kg of ^14C-tesetaxel, respectively, and tissue distribution was assessed at 336 hours post-dose (14 days). These doses equate to ˜44% of the 27 mg/m^2 dose in an ongoing Phase 3 clinical study. In vivo radioactivity concentrations in the cerebrum and cerebellum were compared to plasma concentrations and mean tumor GI50 (concentration resulting in 50% tumor growth inhibition) determined by MTT assay in 23 tumor cell lines.

[3] = tested on: taxane-resistant tumors; assay: Nonclinical studies of activity against taxane-resistant tumors
[4] = Terminal plasma half-life in humans
[5] = In vivo tissue distribution of 14C-tesetaxel in monkeys; parameters: species or system monkey; conditions: for t1/2 / Cerebellum / Cerebrum / Plasma: 1 mg/kg; for Cerebellum / Cerebrum / Plasma: 14 days post-dose, radioactivity
Protocol: as §1, §2

[6] = dog, single oral dose of 0.6 mg/kg, N=3
[7] = monkey, single oral dose of 1 mg/kg, N=3

CC(=O)O[C@@]12CO[C@@H]1CC[C@@]1(C)[C@@H]3O[C@H](CN(C)C)O[C@@H]3C3=C(C)[C@@H](OC(=O)[C@H](O)[C@@H](NC(=O)OC(C)(C)C)c4ncccc4F)C[C@@](O)([C@@H](OC(=O)c4ccccc4)[C@@H]12)C3(C)C [Tesetaxel]
CNS tissue binding ([1]; CNS tissue): 98.9% | Human plasma binding ([1]; plasma): 98.2% | t1/2 ([2]; dog, IV): 72 h | Cerebellum ([2]; dog, IV): 7.8 ± 0.6 ng eq/g | Cerebrum ([2]; dog, IV): 16.8 ± 2.9 ng eq/g | Plasma ([2]; dog, IV): 0.5 ± 0.0 ng eq/mL | t1/2 ([2]; dog, PO): 96 h | Cerebellum ([2]; dog, PO): 6.1 ± 1.9 ng eq/g | Cerebrum ([2]; dog, PO): 10.9 ± 4.0 ng eq/g | Plasma ([2]; dog, PO): 0.9 ± 0.1 ng eq/mL | Cerebrum/Plasma ([2]; dog, single oral dose of 0.6 mg/kg, 14 days after dosing): 12x | 14C-Tesetaxel Radioactivity Concentration 14 Days after Dosing, Cerebrum (Mean ± SD) [2, 6]: 10.9 ± 4.0 ng eq./g or mL | 14C-Tesetaxel Radioactivity Concentration 14 Days after Dosing, Plasma (Mean ± SD) [2, 6]: 0.9 ± 0.1 ng eq./g or mL | CNS penetration ([2]; dogs, oral (PO) or intravenous (IV) administration): CNS penetration was observed | Activity against taxane-resistant tumors [3]: retain activity against taxane-resistant tumors | Terminal plasma half-life (t1/2) [4]: ~190 h | t1/2 ([5]; monkey, IV): 72 h | Cerebellum ([5]; monkey, IV): 18 ± 1.0 ng eq/g | Cerebrum ([5]; monkey, IV): 21 ± 2.0 ng eq/g | Plasma ([5]; monkey, IV): 1.0 ± 0.0 ng eq/mL | t1/2 ([5]; monkey, PO): 52.8 h | Cerebellum ([5]; monkey, PO): 4.4 ± 1.7 ng eq/g | Cerebrum ([5]; monkey, PO): 6.5 ± 3.8 ng eq/g | Plasma ([5]; monkey, PO): 0.9 ± 0.2 ng eq/mL | Cerebrum/Plasma ([5]; monkey, single oral dose of 1 mg/kg, 14 days after dosing): 7x | 14C-Tesetaxel Radioactivity Concentration 14 Days after Dosing, Cerebrum (Mean ± SD) [5, 7]: 6.5 ± 3.8 ng eq./g or mL | 14C-Tesetaxel Radioactivity Concentration 14 Days after Dosing, Plasma (Mean ± SD) [5, 7]: 0.9 ± 0.2 ng eq./g or mL | CNS penetration ([5]; monkeys, oral (PO) or intravenous (IV) administration): CNS penetration was observed
